The values below come from PubChem BioAssay AID1259408 (Genetic Toxicology Data Bank (GENE-TOX), 2018).

SMILES strings stand for the structures. Activity calls are given as the source filed them. How the calls were made is not given here.

The test system of the data set is GENE-TOX genotoxicity assays, various organisms and cells. Kind of data set: GENE-TOX mutagenicity studies. As to conditions: for call: Assay Type: In vivo carcinogenicity studies.
Where [1] appears, read: Species/Cell Type: Escherichia coli polA (W3119 vs P3478), Assay Type: Rec-assay, DNA effects (bacterial DNA repair), Assay Code: RE1+, Evaluation Type: Evaluation A (Pre-1980).
Where [2] appears, read: Species/Cell Type: Nonhuman, Assay Code: CCGT, Evaluation Type: Evaluation A (Pre-1980).
Setting [3] is: Species/Cell Type: Saccharomyces cerevisiae, Assay Type: Mitotic recombination or gene conversion, Assay Code: YEH+, Evaluation Type: Evaluation A (Pre-1980).
The mark [4] stands for this setting: Species/Cell Type: Salmonella typhimurium (one or more of the five standard strains: TA98, TA100, TA1535, TA1537, and TA1538), Assay Type: Histidine reverse gene mutation, Ames assay, Assay Code: SAL+, Evaluation Type: Evaluation A (Pre-1980).
Setting [5] is: Species/Cell Type: Syrian hamster embryo (SHE) cells, Assay Type: Cell transformation, clonal assay, Assay Code: CTC+, Evaluation Type: Evaluation A (Pre-1980).
Setting [6] is: Species/Cell Type: Salmonella typhimurium (one or more of the five standard strains: TA98, TA100, TA1535, TA1537, and TA1538), Assay Type: Histidine reverse gene mutation, Ames assay, Assay Code: SALT, Evaluation Type: Evaluation A (Pre-1980).
Setting [7] is: Species/Cell Type: Human diploid fibroblasts, Assay Type: Unscheduled DNA synthesis (UDS) in vitro, DNA effects, Assay Code: UDH+, Evaluation Type: Evaluation A (Pre-1980).
Where [8] appears, read: Species/Cell Type: Human lymphocytes, Assay Type: Sister-chromatid exchange (SCE) in vitro, Assay Code: SCLT, Evaluation Type: Evaluation B (Post-1980).
[9] abbreviates: Species/Cell Type: Human, Assay Type: Sister-chromatid exchange (SCE) in vitro, Assay Code: SC1T, Evaluation Type: Evaluation B (Post-1980).
[10] abbreviates: Species/Cell Type: Nonhuman, Assay Type: Sister-chromatid exchange (SCE) in vitro, Assay Code: SC2+, Evaluation Type: Evaluation B (Post-1980).
Where [11] appears, read: Species/Cell Type: Drosophila melanogaster, Assay Type: Sex-linked recessive lethal gene mutation, Assay Code: SRLT, Evaluation Type: Evaluation A (Pre-1980).

On to `CCC1CO1` (stereo not drawn), for which the mutagenic call was “active; positive” (Species/Cell Type: Escherichia coli polA (W3110 vs P3478), Assay Type: Rec-assay, DNA effects (bacterial DNA repair), Assay Code: RE2+, Evaluation Type: Evaluation A (Pre-1980)); “active; positive” under setting [1]; “active; positive” (Species/Cell Type: Fischer rat embryo (RLV/1706) cells, Assay Type: Cell transformation, viral enhanced, Assay Code: CTR+, Evaluation Type: Evaluation A (Pre-1980)); “inactive; negative” (Species/Cell Type: Mouse (BALB/c-3T3) cells, Assay Type: Cell transformation, Assay Code: CTB-, Evaluation Type: Evaluation A (Pre-1980)); “active; positive” (Species/Cell Type: Neurospora crassa, Assay Type: Reverse gene mutation, Assay Code: NER+, Evaluation Type: Evaluation A (Pre-1980)); “active; positive” under setting [3]. The mutagenic call runs as follows: under setting [4], “active; positive”; under setting [5], “active; positive”. The call under setting [2] was “no conclusion”.

Take `FC(F)OC(F)(F)C(F)Cl` (stereo not drawn): the mutagenic call reads like this: (Species/Cell Type: Chinese hamster lung (V79) cells, Assay Type: Forward gene mutation at the HPRT or ouabain locus, Assay Code: V79-, Evaluation Type: Evaluation A (Pre-1980)) “inactive; negative”; (Species/Cell Type: Human lymphocytes, Assay Type: Sister-chromatid exchange (SCE) in vivo, Assay Code: SCY+, Evaluation Type: Evaluation B (Post-1980)) “active; positive”; (Species/Cell Type: Mouse, Sex: Male, Assay Type: Sperm morphology, Assay Code: SPIT, Evaluation Type: Evaluation A (Pre-1980)) “no conclusion”; (Species/Cell Type: Nonhuman, Assay Type: Sister-chromatid exchange (SCE) in vitro, Assay Code: SC2T, Evaluation Type: Evaluation B (Post-1980)) “no conclusion”; under setting [6], “no conclusion”.

With `CCCCCCCCCCCCCC(=O)ON(C(=O)CCCCCCCCCCCCC)c1ccc2c(c1)Cc1ccccc1-2`, the mutagenic call is “active; positive” under setting [7] and “no conclusion” under setting [6].

As for `O=S1(=O)CCCCO1`, the mutagenic call reads like this: under setting [1], “active; positive”; under setting [3], “active; positive”; under setting [4], “active; positive”; (Species/Cell Type: Salmonella typhimurium, Assay Type: Forward and reverse gene mutation, host-mediated assay, Assay Code: HMA+, Evaluation Type: Evaluation A (Pre-1980)) “active; positive”; (Species/Cell Type: Schizosaccharomyces pombe, Assay Type: Reverse gene mutation, Assay Code: YEZ+, Evaluation Type: Evaluation A (Pre-1980)) “active; positive”; under setting [5], “active; positive”. Besides, the call under setting [2] is “no conclusion”.

Take `Cc1ccc(S(=O)(=O)NC(=O)N[C@H]2[C@H]3CC[C@@](C)([C@H]2O)C3(C)C)cc1`: the mutagenic call (Species/Cell Type: Nonhuman, Assay Type: Sister-chromatid exchange (SCE) in vivo, Assay Code: SC3T, Evaluation Type: Evaluation B (Post-1980)) is “no conclusion”.

Regarding `NC(=O)N(CCCl)N=O`, the mutagenic call (Species/Cell Type: Chinese hamster lung (V79) cells, Assay Type: Forward gene mutation at the HPRT or ouabain locus, Assay Code: V79+, Evaluation Type: Evaluation A (Pre-1980)) is “active; positive”.

On to `ClCc1c2ccccc2c(Cl)c2ccccc12`, for which the mutagenic call under setting [4] was “active; positive”.

On to `Cc1c(C)c2c(c(C)c1O)CCC(C)(CCCC(C)CCCC(C)CCCC(C)C)O2` (stereo not drawn), for which the mutagenic call is listed as “no conclusion” under setting [8] and “no conclusion” under setting [9].

With `C#CC(C)N(C(=O)CCl)c1ccccc1` (stereo not drawn), the mutagenic call (Species/Cell Type: Saccharomyces cerevisiae, Assay Type: Mitotic recombination or gene conversion, Assay Code: YEC-, Evaluation Type: Evaluation A (Pre-1980)) was “inactive; negative”.

Consider `CI`, for which the mutagenic call by setting is: under setting [1], “active; positive”; (Species/Cell Type: Mouse lymphoma (L5178Y) cells, Assay Type: Forward gene mutation at the thymidine kinase (TK) locus, chromosome aberrations, Assay Code: L51+, Evaluation Type: Evaluation A (Pre-1980)) “active; positive”; under setting [3], “active; positive”; under setting [5], “active; positive”. Where the note is “Species/Cell Type: Nonhuman, Assay Code: CCG+, Evaluation Type: Evaluation A (Pre-1980)”, the call is “active; positive”.

Turning to `CC(=O)ON(C(C)=O)c1ccc(-c2ccccc2)cc1`, the mutagenic call reads like this: under setting [7], “active; positive”; under setting [10], “active; positive”.

On to `CN(C)CCNc1ccc(NCCN(C)C)c2c1C(=O)c1c(O)ccc(O)c1C2=O`, for which the mutagenic call under setting [10] is “active; positive”.

In the case of `ClCc1c2ccccc2c(CCl)c2ccccc12`, the mutagenic call under setting [4] was “active; positive”.

Regarding `O=C(OCC1=CCN2CC[C@@H](OC(=O)c3ccc4c(c3)OCO4)[C@@H]12)c1ccc2c(c1)OCO2`, for the setting “Species/Cell Type: Allium cepa, Assay Type: Chromosome aberrations, Assay Code: ALC+, Evaluation Type: Evaluation A (Pre-1980)”, the mutagenic call was “active; positive”.

On to `Nc1ccc2c(c1)-c1ccccc1C2`, for which the mutagenic call (Species/Cell Type: Fischer rat embryo (RLV/1706) cells, Assay Type: Cell transformation, viral enhanced, Assay Code: CTR-, Evaluation Type: Evaluation A (Pre-1980)) was “inactive; negative”.

Consider `CCOP(=O)(N=C1SCC(C)S1)OCC` (stereo not drawn), for which the mutagenic call (Species/Cell Type: Hordeum vulgare (barley), Assay Type: Chromosome aberrations, Assay Code: HOC+D, Dose Response: With dose response, Evaluation Type: Evaluation A (Pre-1980)) is “active; positive”.

`Nc1ccc(Cl)cc1Cl`: the mutagenic call (Species/Cell Type: Mouse, Sex: Male, Assay Type: Sperm morphology, Assay Code: SPI-, Evaluation Type: Evaluation A (Pre-1980)) was “inactive; negative”.

For the molecule `CN(C)N=Nc1cccc(O)c1`, the mutagenic call was “no conclusion” under setting [11] and “active; positive” (Species/Cell Type: Saccharomyces cerevisiae, Assay Type: Mitotic recombination or gene conversion, Assay Code: YEC+, Evaluation Type: Evaluation A (Pre-1980)).

On to `NC(=O)c1ncn([C@@H]2O[C@H](CO)[C@@H](O)[C@H]2O)c1O`, for which, under “Species/Cell Type: Nonhuman, Assay Type: Sister-chromatid exchange (SCE) in vitro, Assay Code: SC2+D, Dose Response: With dose response, Evaluation Type: Evaluation A (Pre-1980)”, the mutagenic call was “active; positive”.

With `CCCN(CCC)C(=O)SCC`, the mutagenic call reads like this: (Species/Cell Type: Neurospora crassa, Assay Type: Aneuploidy, chromosome aberrations, Assay Code: NEN-, Evaluation Type: Evaluation A (Pre-1980)) “inactive; negative”; (Species/Cell Type: Zea mays (corn), Assay Type: Gene mutation, Assay Code: ZEM-, Evaluation Type: Evaluation A (Pre-1980)) “inactive; negative”.

In the case of `COc1cccc2c1cc([N+](=O)[O-])c1c(C(=O)O)cc3c(c12)OCO3`, the mutagenic call is “active; positive” (Species/Cell Type: Human lymphocytes, Assay Type: Sister-chromatid exchange (SCE) in vitro, Assay Code: SCL+D, Dose Response: With dose response, Evaluation Type: Evaluation B (Post-1980)) and “active; positive” (Species/Cell Type: Human, Assay Type: Sister-chromatid exchange (SCE) in vitro, Assay Code: SC1+D, Dose Response: With dose response, Evaluation Type: Evaluation B (Post-1980)).

On to `N=NN`, for which the mutagenic call (Species/Cell Type: Drosophila melanogaster, Assay Type: Sex-linked recessive lethal gene mutation, Assay Code: SRL+, Evaluation Type: Evaluation A (Pre-1980)) was “active; positive”.

Regarding `ONC1CCCCC1`, the mutagenic call was “no conclusion” under setting [11]; “no conclusion” (Species/Cell Type: Drosophila melanogaster, Sex: Male, Assay Type: Heritable translocation test, chromosome aberrations, Assay Code: DHTT, Evaluation Type: Evaluation A (Pre-1980)); “inactive; negative” (Species/Cell Type: Human lymphocytes or leukocytes, Assay Type: Chromosome aberrations in vitro, Assay Code: CY7-, Evaluation Type: Evaluation A (Pre-1980)).

Turning to `N[C@@H](CS)C(=O)O`, the mutagenic call was “inactive; negative” (Species/Cell Type: Allium cepa, Assay Type: Chromosome aberrations, Assay Code: ALC-, Evaluation Type: Evaluation A (Pre-1980)); “no conclusion” under setting [8]; “no conclusion” under setting [9]; “active; positive” (Species/Cell Type: Nonhuman, Assay Type: Sister-chromatid exchange (SCE) in vitro, Assay Code: SC2+D, Dose Response: With dose response, Evaluation Type: Evaluation B (Post-1980)).

As for `[Cl][Bi]([Cl])[Cl]`, where the note is “Species/Cell Type: Bacillus subtilis (H17 vs M45), Assay Type: Rec-assay, spot test, DNA effects (bacterial DNA repair), Assay Code: REW-, Evaluation Type: Evaluation A (Pre-1980)”, the mutagenic call is “inactive; negative”.

Regarding `CN(C)C(CSC(N)=O)CSC(N)=O`, the mutagenic call runs as follows: (Species/Cell Type: Mammalian polychromatic erythrocytes, Assay Type: Micronucleus test, chromosome aberrations, Assay Code: MNTT, Evaluation Type: Evaluation B (Post-1980)) “no conclusion”; (Species/Cell Type: Nonhuman bone marrow, Assay Type: Chromosome aberrations, in vivo, Assay Code: CY#-, Evaluation Type: Evaluation A (Pre-1980)) “inactive; negative”.

On to `CCOC(=O)Nc1ncc(-c2ccc(Cl)cc2)[nH]1`, for which the mutagenic call (Species/Cell Type: Salmonella typhimurium, Assay Type: Forward and reverse gene mutation, host-mediated assay, Assay Code: HMAT, Evaluation Type: Evaluation A (Pre-1980)) is on record as “no conclusion”.

With `C=CC1=C(C)/C(=C/c2[nH]c(Cc3[nH]c(/C=C4\NC(=O)C(C)=C4C=C)c(C)c3CCC(=O)O)c(CCC(=O)O)c2C)NC1=O`, the mutagenic call (Species/Cell Type: Human lymphocytes, Assay Type: Sister-chromatid exchange (SCE) in vitro, Assay Code: SCL-, Evaluation Type: Evaluation A (Pre-1980)) is “inactive; negative” and the mutagenic call (Species/Cell Type: Human, Assay Type: Sister-chromatid exchange (SCE) in vitro, Assay Code: SC1-, Evaluation Type: Evaluation A (Pre-1980)) was “inactive; negative”.
